Legend:
Experiment in all cases: cell-based
Set-up in all cases: Eurofins Cerep functional GPCR screen, antagonist mode, inhibition of control agonist response
Settings in all cases: read-out: % Inhibition of Control Agonist Response, Mean
[1] = target: T1, CRF1 (Homo sapiens, UniProt P34998)
T1 construct: gene CRHR1

[2] = target: CXCR6 (Homo sapiens, UniProt O00574)
[3] = target: T2, BB1 (Homo sapiens, UniProt P28336)
T2 construct: gene NMBR

[4] = target: T3, A3 (Homo sapiens, UniProt P0DMS8)
T3 construct: gene ADORA3

[5] = target: CXCR4 (Homo sapiens, UniProt P61073)
[6] = target: T4, Ghrelin / GHSR-1a (Homo sapiens, UniProt Q92847)
T4 construct: GHSR-1a isoform

[7] = target: T5, GAL2 (Homo sapiens, UniProt O43603)
T5 construct: gene GALR2

[8] = target: T6, D2S (Homo sapiens, UniProt P14416)
T6 construct: gene DRD2; D2S short isoform

[9] = target: T7, H3 (Homo sapiens, UniProt Q9Y5N1)
T7 construct: gene HRH3

[10] = target: T8, secretin (Homo sapiens, UniProt P47872)
T8 construct: gene SCTR

[11] = target: T9, FFA2 (Homo sapiens, UniProt O15552)
T9 construct: gene FFAR2

[12] = target: T10, α1B (Homo sapiens, UniProt P35368)
T10 construct: gene ADRA1B

[13] = target: CXCR2 (Homo sapiens, UniProt P25025)
[14] = target: T11, GABAB1b beta (Homo sapiens, UniProt Q9UBS5)
T11 construct: gene GABBR1; GABAB1b isoform

[15] = target: OXGR1 GPR99 (Homo sapiens, UniProt Q96P68)
[16] = target: T12, α2A (Homo sapiens, UniProt P08913)
T12 construct: gene ADRA2A

[17] = target: T13, KiSS1 / GPR54 (Homo sapiens, UniProt Q969F8)
T13 construct: gene KISS1R

[18] = target: T14, BB3 (Homo sapiens, UniProt P32247)
T14 construct: gene BRS3

[19] = target: T15, α2C (Homo sapiens, UniProt P18825)
T15 construct: gene ADRA2C

[20] = target: FPR1 (Homo sapiens, UniProt P21462)
[21] = target: CXCR5 (Homo sapiens, UniProt P32302)
[22] = target: T16, H2 (Homo sapiens, UniProt P25021)
T16 construct: gene HRH2

[23] = target: CCR2 (Homo sapiens, UniProt P41597)
[24] = target: T17, ETA (Homo sapiens, UniProt P25101)
T17 construct: gene EDNRA

[25] = target: T18, α1A (Homo sapiens, UniProt P35348)
T18 construct: gene ADRA1A

[26] = target: T19, CB1 (Homo sapiens, UniProt P21554)
T19 construct: gene CNR1

T18 sequence (P35348 whole entry): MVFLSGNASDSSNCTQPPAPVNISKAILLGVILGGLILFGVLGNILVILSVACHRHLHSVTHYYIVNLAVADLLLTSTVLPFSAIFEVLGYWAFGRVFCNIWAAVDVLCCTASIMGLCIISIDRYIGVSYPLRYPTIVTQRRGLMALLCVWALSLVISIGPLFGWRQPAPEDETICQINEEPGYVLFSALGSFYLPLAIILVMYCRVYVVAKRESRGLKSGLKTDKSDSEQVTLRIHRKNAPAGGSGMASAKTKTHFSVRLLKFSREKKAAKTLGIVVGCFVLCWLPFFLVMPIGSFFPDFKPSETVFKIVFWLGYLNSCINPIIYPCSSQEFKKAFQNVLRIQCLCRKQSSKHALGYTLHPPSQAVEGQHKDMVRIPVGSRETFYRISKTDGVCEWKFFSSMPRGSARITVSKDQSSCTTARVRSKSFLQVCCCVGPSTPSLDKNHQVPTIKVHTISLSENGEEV
T3 sequence (P0DMS8 whole entry): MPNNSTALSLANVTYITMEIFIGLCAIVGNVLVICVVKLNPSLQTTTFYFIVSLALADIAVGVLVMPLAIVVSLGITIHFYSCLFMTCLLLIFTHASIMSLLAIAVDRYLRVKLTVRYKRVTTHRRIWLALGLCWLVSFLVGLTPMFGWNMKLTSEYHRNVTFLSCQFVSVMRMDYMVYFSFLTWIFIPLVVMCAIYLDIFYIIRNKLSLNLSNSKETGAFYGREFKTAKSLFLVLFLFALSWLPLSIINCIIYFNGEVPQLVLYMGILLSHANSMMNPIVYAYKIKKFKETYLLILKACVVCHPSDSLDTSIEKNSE
Sequence of CXCR5 (P32302 whole entry): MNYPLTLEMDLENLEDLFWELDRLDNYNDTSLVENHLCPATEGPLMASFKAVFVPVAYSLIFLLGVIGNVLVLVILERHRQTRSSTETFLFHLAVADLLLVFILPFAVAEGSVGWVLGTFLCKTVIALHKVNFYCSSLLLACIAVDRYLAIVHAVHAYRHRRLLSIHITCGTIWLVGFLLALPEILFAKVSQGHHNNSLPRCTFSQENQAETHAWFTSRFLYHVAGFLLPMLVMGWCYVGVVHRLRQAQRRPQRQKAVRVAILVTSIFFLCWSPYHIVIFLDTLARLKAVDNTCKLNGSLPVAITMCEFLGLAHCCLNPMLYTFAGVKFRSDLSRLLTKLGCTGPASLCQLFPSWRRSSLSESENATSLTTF
T7 sequence (Q9Y5N1 whole entry): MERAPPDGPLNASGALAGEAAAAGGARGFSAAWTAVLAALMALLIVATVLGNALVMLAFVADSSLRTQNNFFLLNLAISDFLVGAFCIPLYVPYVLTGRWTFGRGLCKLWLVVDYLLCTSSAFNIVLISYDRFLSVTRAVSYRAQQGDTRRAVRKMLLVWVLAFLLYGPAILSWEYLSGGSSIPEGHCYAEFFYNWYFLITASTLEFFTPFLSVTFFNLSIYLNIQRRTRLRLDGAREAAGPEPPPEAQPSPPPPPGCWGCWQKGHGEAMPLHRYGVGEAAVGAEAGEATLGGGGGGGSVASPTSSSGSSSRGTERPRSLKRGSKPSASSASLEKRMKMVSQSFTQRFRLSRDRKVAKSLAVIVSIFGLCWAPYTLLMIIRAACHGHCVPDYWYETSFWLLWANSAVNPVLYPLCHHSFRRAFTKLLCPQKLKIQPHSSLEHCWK
T1 sequence (P34998 whole entry): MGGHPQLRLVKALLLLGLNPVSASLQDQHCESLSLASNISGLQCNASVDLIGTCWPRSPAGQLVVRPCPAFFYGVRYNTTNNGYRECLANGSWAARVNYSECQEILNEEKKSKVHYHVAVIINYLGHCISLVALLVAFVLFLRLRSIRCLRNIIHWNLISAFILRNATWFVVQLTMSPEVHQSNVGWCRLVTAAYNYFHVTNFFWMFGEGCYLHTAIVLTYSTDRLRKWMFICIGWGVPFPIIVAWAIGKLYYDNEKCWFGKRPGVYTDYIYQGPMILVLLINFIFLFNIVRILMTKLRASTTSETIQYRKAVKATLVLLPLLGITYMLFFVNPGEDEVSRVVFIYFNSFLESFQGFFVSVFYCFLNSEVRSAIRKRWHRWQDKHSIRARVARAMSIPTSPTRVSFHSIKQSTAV
T16 sequence (P25021 whole entry): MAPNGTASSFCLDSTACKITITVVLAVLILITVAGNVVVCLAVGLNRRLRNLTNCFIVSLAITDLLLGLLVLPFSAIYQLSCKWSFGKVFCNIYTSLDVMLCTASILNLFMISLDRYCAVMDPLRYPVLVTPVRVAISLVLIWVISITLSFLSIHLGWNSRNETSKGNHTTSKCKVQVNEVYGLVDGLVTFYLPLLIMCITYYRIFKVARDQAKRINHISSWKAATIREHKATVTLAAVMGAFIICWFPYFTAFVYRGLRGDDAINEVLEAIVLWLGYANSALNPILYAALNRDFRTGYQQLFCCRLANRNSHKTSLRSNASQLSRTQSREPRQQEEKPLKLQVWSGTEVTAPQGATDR
T11 sequence (Q9UBS5 whole entry, canonical isoform): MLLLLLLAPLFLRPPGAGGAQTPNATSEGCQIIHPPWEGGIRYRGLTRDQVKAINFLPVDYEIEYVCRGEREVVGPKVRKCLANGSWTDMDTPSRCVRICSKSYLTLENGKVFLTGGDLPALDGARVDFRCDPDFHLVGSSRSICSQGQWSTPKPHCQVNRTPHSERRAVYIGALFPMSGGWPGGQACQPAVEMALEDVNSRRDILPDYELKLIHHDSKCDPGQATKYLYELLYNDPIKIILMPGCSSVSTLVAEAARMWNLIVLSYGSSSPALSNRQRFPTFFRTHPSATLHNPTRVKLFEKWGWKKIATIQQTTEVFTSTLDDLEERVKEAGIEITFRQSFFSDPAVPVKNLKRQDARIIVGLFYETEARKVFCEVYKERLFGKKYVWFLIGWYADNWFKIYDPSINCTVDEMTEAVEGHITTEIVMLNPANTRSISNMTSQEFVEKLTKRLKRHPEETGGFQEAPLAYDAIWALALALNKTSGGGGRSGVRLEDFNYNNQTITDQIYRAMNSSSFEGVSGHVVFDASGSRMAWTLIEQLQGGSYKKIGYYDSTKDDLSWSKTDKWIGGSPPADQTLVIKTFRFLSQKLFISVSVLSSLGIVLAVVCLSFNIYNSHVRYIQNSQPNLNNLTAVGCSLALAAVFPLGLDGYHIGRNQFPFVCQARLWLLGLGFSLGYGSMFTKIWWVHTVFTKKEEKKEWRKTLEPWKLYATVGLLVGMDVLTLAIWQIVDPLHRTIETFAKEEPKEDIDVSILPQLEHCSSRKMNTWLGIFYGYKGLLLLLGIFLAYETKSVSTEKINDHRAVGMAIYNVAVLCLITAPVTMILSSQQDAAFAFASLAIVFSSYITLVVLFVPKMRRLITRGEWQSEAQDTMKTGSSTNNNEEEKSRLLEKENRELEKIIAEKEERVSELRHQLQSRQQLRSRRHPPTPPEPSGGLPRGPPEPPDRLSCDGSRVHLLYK
T11 sequence (O75899 whole entry partner, canonical isoform): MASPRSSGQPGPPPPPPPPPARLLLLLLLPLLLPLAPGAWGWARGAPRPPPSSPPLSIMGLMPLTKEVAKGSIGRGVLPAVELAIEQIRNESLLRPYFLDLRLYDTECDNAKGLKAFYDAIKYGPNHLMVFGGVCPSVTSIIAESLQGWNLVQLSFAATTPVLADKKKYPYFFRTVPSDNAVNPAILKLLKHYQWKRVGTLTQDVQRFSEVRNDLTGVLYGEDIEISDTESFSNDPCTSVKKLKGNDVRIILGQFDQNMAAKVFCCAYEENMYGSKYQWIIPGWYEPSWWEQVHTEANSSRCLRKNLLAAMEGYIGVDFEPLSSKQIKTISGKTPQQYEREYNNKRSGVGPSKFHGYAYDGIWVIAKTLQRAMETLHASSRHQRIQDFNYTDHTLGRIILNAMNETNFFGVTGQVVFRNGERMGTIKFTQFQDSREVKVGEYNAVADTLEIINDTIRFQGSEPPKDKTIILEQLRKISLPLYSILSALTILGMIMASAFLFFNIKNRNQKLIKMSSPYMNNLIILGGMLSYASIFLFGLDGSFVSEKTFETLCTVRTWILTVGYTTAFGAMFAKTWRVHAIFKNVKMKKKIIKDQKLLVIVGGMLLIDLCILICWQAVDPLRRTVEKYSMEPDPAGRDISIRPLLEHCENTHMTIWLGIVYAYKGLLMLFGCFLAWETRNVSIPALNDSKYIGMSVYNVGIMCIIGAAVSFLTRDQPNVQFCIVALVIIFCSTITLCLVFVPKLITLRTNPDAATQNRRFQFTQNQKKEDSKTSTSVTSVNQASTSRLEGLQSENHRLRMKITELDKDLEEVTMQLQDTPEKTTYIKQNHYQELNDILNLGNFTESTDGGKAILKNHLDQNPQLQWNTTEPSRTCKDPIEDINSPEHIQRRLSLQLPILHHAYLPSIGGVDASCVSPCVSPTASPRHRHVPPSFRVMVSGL
T13 sequence (Q969F8 whole entry): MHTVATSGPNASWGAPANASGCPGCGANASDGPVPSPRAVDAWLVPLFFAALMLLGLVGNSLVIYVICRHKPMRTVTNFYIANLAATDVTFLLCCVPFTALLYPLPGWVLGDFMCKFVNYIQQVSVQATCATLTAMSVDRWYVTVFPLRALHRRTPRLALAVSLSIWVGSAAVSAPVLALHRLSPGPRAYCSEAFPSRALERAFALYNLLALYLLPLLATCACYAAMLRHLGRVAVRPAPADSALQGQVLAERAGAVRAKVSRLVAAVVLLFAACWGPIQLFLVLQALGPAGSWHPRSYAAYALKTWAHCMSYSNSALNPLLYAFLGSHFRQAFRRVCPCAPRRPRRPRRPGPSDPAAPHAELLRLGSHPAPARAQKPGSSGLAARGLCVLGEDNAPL

Molecule `[O-][S@@+](Cc1cncs1)C(c1ccccc1)c1ccccc1` [S-CE-123, (S)-5-((Benzhydrylsulfinyl)Methyl)Thiazole] has an inhibition at 2.8 µM [1] of -16.9%, an inhibition at 2.8 µM [2] of -7.6% and an inhibition at 2.8 µM [3] of -10.5%. It also gave an inhibition at 2.8 µM [4] of -1.8%, an inhibition at 2.8 µM [5] of -40.7% and an inhibition at 2.8 µM [6] of -11.7%. It also gave an inhibition at 2.8 µM [7] of -4.8%, an inhibition at 2.8 µM [8] of 18.1% and an inhibition at 2.8 µM [9] of -0.3%. The inhibition at 2.8 µM [10] was 17.6%, the inhibition at 2.8 µM [11] was 2.9% and the inhibition at 2.8 µM [12] was -15.1%. It also gave an inhibition at 2.8 µM [13] of 3.8%, an inhibition at 2.8 µM [14] of -10.6% and an inhibition at 2.8 µM [15] of -10.2%. It also gave an inhibition at 2.8 µM [16] of -8.4%, an inhibition at 2.8 µM [17] of -2.8% and an inhibition at 2.8 µM [18] of 6.2%. It also gave an inhibition at 2.8 µM [19] of 0.3%, an inhibition at 2.8 µM [20] of 1.6% and an inhibition at 2.8 µM [21] of -1.9%. The inhibition at 2.8 µM [22] was -2.4%, the inhibition at 2.8 µM [23] was 2% and the inhibition at 2.8 µM [24] was -0.5%. The inhibition at 2.8 µM [25] was 3.1% and the inhibition at 2.8 µM [26] was -2.1%.

Source: PMC10046369, “Low-Affinity/High-Selectivity Dopamine Transport Inhibition Sufficient to Rescue Cognitive Functions in the Aging Rat” (Biomolecules, 2023)
